Where a name gives a salt, the structure may show the parent alone.
Key:
[1] = biological target: T1, Glucose oxidase (GOD) (E.C.1.1.3.4.) (Aspergillus niger, UniProt P13006); assay: Cyclic voltammetry of GOD-graphite/paraffin pasta electrode containing the mediator; type: biochemical; settings: Ag/AgCl ref.
Protocol: • 1) A paste containing GOD-immobilized graphite, paraffin and mediator is prepared. If the mediator has a big solubility in paraffin then 10 mg of mediator is used per ml of paraffin. If the mediator has a little solubility in paraffin then 50 mg of crystals are added per ml of paraffin in order to obtain a homogeneous mixture before graphite is added. The paste obtained is filled into sticks. • 2) The activity of the paste is determined in a cyclic voltametri equipment where the current is measured as a function of the potential (CV sweep). Five concentrations of glucose are measured, i.e., 0, 5, 10, 15 and 20 mM. Based upon the results obtained, the following is evaluated: • a) whether the mediator can be oxidized and reduced by the graphite electrode, • b) whether the mediator can be reduced of GOD, • c) the optimal potential for the electorde to be used, • d) whether a lineary response as a function of the concentration of glucose can be obtained using the concentration of mediator in question, • e) whether the concentration of the mediator can be optimized. • 3) The response as a function of time at the optimal potential is to be measured. The time interval within which the response represents a stable response for the concentration of glucose is to be evaluated. • 4) The stability of the mediator in the paste question is determined.
(§1) Glucose oxidase (GOD) (E.C.1.1.3.4.) was immobilized on graphite particles by the following procedure: 10 g of graphite was oxidized in air at 100°C for 24 hours. The surface oxidized graphite particles were activated with 500 mg of 1-cyclohexyl-3-(2-morpholinoethyl)carbodiimide metho-p-toluenesulfonate in 100 ml of 0.1 M acetate buffer (pH 4.76) for 2 hours, then washed with distilled water until an approximately neutral pH value and dried. The activated graphite was mixed with 30 ml of 0.01 phosphate buffer (pH 7.3) containing 80,000 IU GOD and 4% glutaraldehyde for 16 hours at 4°C, dried and sieved through a 48 mesh to obtain uniform particles.
(§2) 1 g of paraffin oil containing 5% Methylene green (4-nitro-3,7-bis(dimethylamino)phenothiazine) was mixed carefully with 2 g of GOD modified graphite to a uniform pasta.
(§3) The pasta was filled into a plastic rod in which it was possible to cut a thin cross-sectional slice to introduce a new well-defined electrode area. Before each measurement, the electrode surface was renewed. The working electrode area used was 3 mm^2.
In the study of the working electrode, an Ag auxiliary electrode and an Ag/AgCl reference electrode was used. In a cyclic voltammogram, a catalytic current from the reoxidation of the mediator was observed beginning at -50 mV and being stable between 50 and 400 mV. The current was proportional to the concentration of glucose used.
(§4) Data in the table are obtained using the same procedure as in Example 1.

[2] = Redox potential of the mediator at GC electrode; type: physicochemical; settings: Ag/AgCl ref.; in mV (unit assumed)
Description: as §4

[3] = Stability test of pasta rods with selected mediators stored at different temperatures; type: physicochemical; design: unit not given here
Protocol: The stability of a paste with a certain mediator can be determined using the following method:
The mediator is dissolved or mixed with paraffin and, thereafter, the enzyme coupled to graphite is added. The mixture is homogenized giving a paste. This paste is filled into electrode holders of plast giving so-called sticks. These sticks are tested using 0 and 10 mM glucose standards in order to characterize the activity of these sticks in relation to glucose. Thereafter, the paste containing sticks are stored at a constant temperature, for example, 4, 20, 35 and 54°C. After a certain period of time, for example 1 month, the sticks are tested using the 0 and 10 mM glucose standards and the activities measured are compared with the activity measured at originally.
Data are obtained using the same basis procedure as in Example 1. Rods with selected mediators were stored at different temperature to accelerate processes which could give new analytical performance.

[4] = biological target: T1, Glucose oxidase (GOD) (E.C.1.1.3.4.); assay: Chronoamperometry of GOD-graphite/paraffin pasta electrode containing the mediator (glucose measurement); type: biochemical; settings: for Working potential: Ag/AgCl ref.; for SD% of 100 measurement / Signal to noice ration: at 7mM glucose
Protocol: as §1, §2, §3
Chronoamperometry was preformed at 100 mV using the integrated current from 30 to 60 seconds after applying the potential. A linearity up to 40 mM glucose was obtained. The current was 500 nA/(sec*mM). The signal was not affected by the oxygen concentration in the solution. Reference pasta without Methylene green was not affected by different glucose concentrations.
as §4

Lactate oxidase = biological target: T2, Lactate oxidase (Aerococcus viridans, UniProt Q44467); assay: Lactate assay with enzyme-graphite pasta electrode and mediator; type: biochemical; settings: lactate system; at 100 mV vs. Ag/AgCl reference electrode
T2 construct: purchased Sigma
T2 sequence (Q44467 1-374): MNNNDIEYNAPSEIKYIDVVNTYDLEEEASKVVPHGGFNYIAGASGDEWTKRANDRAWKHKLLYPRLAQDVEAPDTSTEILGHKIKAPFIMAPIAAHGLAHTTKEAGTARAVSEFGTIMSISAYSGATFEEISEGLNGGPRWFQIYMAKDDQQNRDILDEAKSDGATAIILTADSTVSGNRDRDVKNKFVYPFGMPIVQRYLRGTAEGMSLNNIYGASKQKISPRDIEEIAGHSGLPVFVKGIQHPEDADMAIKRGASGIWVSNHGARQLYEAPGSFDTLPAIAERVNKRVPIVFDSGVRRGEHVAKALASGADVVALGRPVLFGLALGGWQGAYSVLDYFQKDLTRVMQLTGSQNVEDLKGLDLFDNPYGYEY
Protocol: Lactate oxidase and alcohol oxidase were obtained from Sigma and the enzymes were used as in Example 1. The same mediators as in Example 4 were tested in the electrodes. The best response for the lactate system was obtained with Methylene green, which gave a current density at 4 µA/cm^2/mM at 100 mV vs. Ag/AgCl reference electrode. For the alcohol system ethanol was used as enzyme substrate. The current density was much lower than for the lactate system and none of the tested mediators worked optimally. Other mediators sucessfully tested with glucose oxidase are expected to give higher current densitites due to differences in hydrophobicity and hydrophillicity.

T1 sequence (P13006 17-605, species assumed): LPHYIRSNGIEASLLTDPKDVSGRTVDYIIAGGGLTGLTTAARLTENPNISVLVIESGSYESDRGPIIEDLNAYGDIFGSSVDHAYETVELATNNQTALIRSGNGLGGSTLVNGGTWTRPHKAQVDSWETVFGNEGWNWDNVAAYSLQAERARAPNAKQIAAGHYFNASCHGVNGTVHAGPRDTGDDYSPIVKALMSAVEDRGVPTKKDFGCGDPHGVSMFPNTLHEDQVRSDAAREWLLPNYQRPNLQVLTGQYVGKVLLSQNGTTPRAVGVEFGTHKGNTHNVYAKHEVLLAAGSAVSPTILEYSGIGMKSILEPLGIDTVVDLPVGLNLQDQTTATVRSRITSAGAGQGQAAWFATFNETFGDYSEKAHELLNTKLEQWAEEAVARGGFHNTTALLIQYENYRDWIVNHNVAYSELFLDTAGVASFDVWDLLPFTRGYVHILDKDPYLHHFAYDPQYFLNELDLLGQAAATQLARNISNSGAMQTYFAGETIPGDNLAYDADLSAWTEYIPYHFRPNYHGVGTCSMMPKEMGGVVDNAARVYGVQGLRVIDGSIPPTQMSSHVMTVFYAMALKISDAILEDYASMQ

| Compound | Catalytic interval beginning at [1] [mV] | Redoxpotential at GCElectrode [2] | activity of rod in stability test ([3]; 4°C, listed as a, Time 0) | activity of rod in stability test ([3]; 4°C, listed as a, Time 72) | activity of rod in stability test ([3]; 4°C, listed as b, Time 0) | activity of rod in stability test ([3]; 4°C, listed as b, Time 72) | activity of rod in stability test ([3]; 20°C, listed as a, Time 0) | activity of rod in stability test ([3]; 20°C, listed as a, Time 72) | activity of rod in stability test ([3]; 20°C, listed as b, Time 0) | activity of rod in stability test ([3]; 20°C, listed as b, Time 72) | activity of rod in stability test ([3]; 35°C, listed as a, Time 0) | activity of rod in stability test ([3]; 35°C, listed as a, Time 72) | activity of rod in stability test ([3]; 35°C, listed as b, Time 0) | activity of rod in stability test ([3]; 35°C, listed as b, Time 72) | activity of rod in stability test ([3]; 54°C, listed as a, Time 0) | activity of rod in stability test ([3]; 54°C, listed as b, Time 0) | Working potential [4] | SD% of 100 measurement [4] [%] | Signal to noice ration [4] | Linearity ([4]; glucose) [mM] | further results |
| --- | --- | --- | --- | --- | --- | --- | --- | --- | --- | --- | --- | --- | --- | --- | --- | --- | --- | --- | --- | --- | --- |
| c1cc(N2CCOCC2)ccc1N1CCOCC1 [BMP, 1,4-dimorpholinobenzene] | 50 | 246 | 20.2 | 21.2 | 21.3 | 19.3 | 18.5 | 21.4 | 20.5 | 23.3 | 20.0 | 18.0 | 16.7 | 20.3 | 18.4 | 20.5 | 200 | 6.5 | 5.6 | 20 | activity of rod in stability test ([3]; 54°C, listed as a, Time 72): 15.0; activity of rod in stability test ([3]; 54°C, listed as b, Time 72): 14.6 |
| c1cc(N2CCCCC2)ccc1N1CCCCC1 [BPP, 1,4-dipiperidinobenzene] | 0 | 141 | 12.3 | – | 11.1 | – | 10.0 | – | 10.5 | – | 9.1 | – | 10.6 | – | 11.1 | 10.3 | 150 | 3.5 | 4.7 | 20 | activity of rod in stability test ([3]; 4°C, listed as a, Time 78): 12.4; activity of rod in stability test ([3]; 4°C, listed as b, Time 78): 13.7; activity of rod in stability test ([3]; 20°C, listed as a, Time 78): 11.0; activity of rod in stability test ([3]; 20°C, listed as b, Time 78): 11.1; activity of rod in stability test ([3]; 35°C, listed as a, Time 78): 8.7; activity of rod in stability test ([3]; 35°C, listed as b, Time 78): 10.4; activity of rod in stability test ([3]; 54°C, listed as a, Time 78): 6.7; activity of rod in stability test ([3]; 54°C, listed as b, Time 78): 5.6 |
| C[N+](C)=c1ccc2nc3c(ccc4ccccc43)oc-2c1 [MB, 7-dimethylamino-1,2-benzophenoxazinium salts] | -50 | -175 | – | – | – | – | – | – | – | – | – | – | – | – | – | – | 100 | 6.5 | 4.8 | 40 | – |
| CN(C)c1ccc(N2CCOCC2)cc1 [MDMP, 1-dimethylamino-4-morpholinobenzene] | -20 | 124 | 17.2 | 16.9 | 16.2 | 18.1 | 16.4 | 17.4 | 16.0 | 15.4 | 15.4 | 15.7 | 13.4 | 14.5 | 17.4 | 14.4 | 100 | 4.5 | 8.3 | 20 | activity of rod in stability test ([3]; 54°C, listed as a, Time 72): 6.9; activity of rod in stability test ([3]; 54°C, listed as b, Time 72): 8.5 |
| CN(C)c1ccc2c(c1)Sc1c(ccc(N(C)C)c1[N+](=O)[O-])N2 [MG, 4-nitro-3,7-bis(dimethylamino)phenothiazine] | -50 | -149 | 13.7 | – | 10.0 | – | 14.9 | – | 12.5 | – | 12.1 | – | 13.3 | – | 15.8 | 12.8 | 100 | 7.5 | 22.5 | 40 | activity of rod in stability test ([3]; 4°C, listed as a, Time 75): 13.2; activity of rod in stability test ([3]; 4°C, listed as b, Time 75): 14.3; activity of rod in stability test ([3]; 20°C, listed as a, Time 75): 14.3; activity of rod in stability test ([3]; 20°C, listed as b, Time 75): 15.4; activity of rod in stability test ([3]; 35°C, listed as a, Time 75): 11.2; activity of rod in stability test ([3]; 35°C, listed as b, Time 75): 12.2; activity of rod in stability test ([3]; 54°C, listed as a, Time 75): 10.4; activity of rod in stability test ([3]; 54°C, listed as b, Time 75): 12.6; current density (Lactate oxidase): 4 µA/cm^2/mM; signal affected by the oxygen concentration in the solution ([4]; at 100 mV): not affected; current ([4]; at 100 mV, integrated current from 30 to 60 seconds after applying the potential): 500 nA/(sec*mM); Linearity in mM ([4]; glucose, listed as Methylene green): up to 40 mM |
| c1cc(N2CCOCC2)ccc1N1CCCCC1 [MPP, 1-morpholino-4-piperidinobenzene] | 20 | 166 | 11.7 | – | 9.2 | – | 10.0 | – | 7.2 | – | 7.0 | – | 9.0 | – | 12.5 | 11.3 | 100 | 4.0 | 10 | 20 | activity of rod in stability test ([3]; 4°C, listed as a, Time 70): 8.8; activity of rod in stability test ([3]; 4°C, listed as b, Time 70): 10.5; activity of rod in stability test ([3]; 20°C, listed as a, Time 70): 11.9; activity of rod in stability test ([3]; 20°C, listed as b, Time 70): 9.3; activity of rod in stability test ([3]; 35°C, listed as a, Time 70): 9.0; activity of rod in stability test ([3]; 35°C, listed as b, Time 70): 9.5; activity of rod in stability test ([3]; 54°C, listed as a, Time 70): 4.1; activity of rod in stability test ([3]; 54°C, listed as b, Time 70): 4.7 |

From EP0552223B1, “USE OF BENZENE DERIVATIVES AS CHARGE TRANSFER MEDIATORS” (NOVO NORDISK A/S, priority 1990, dated 1992)
